Data on one substance can be found in US20090317457A1, “ANTI-INFLAMMATORY AND WOUND HEALING EFFECTS OF LYMPHOID THYMOSIN B-4” (Yale University, priority 2002, published 2009).

The test system of assay [1] is DNFB-induced allergic contact dermatitis of ear skin. Nature of the assay: DNFB allergic contact dermatitis (ACD) ear swelling assay. It counts as in vivo, FVB mice. To be noted: for DNFB Ear Thickness (+/− SE): Un-Methionated Thymosin Experiment; for ear thickness: unit not given. The method, then:
Experimental groups of 8-10 female FVB mice, 8-10 weeks of age, were housed in temperature controlled rooms and given food and water ad libitum. Observations and measurements were made by an investigator blinded to the experimental group. Mice were sensitized on day 0 by epicutaneous application to razor-shaved abdominal skin of 25 μl of 0.5% DNFB in a mixture of acetone:olive oil (4:1). Before the challenge with DNFB, mice were injected (i) intraperitoneally with 100 μl of 3.50×10^−5 M thymosin peptide solution (30 minutes before DNFB) and (ii) intradermally with 40 μl of 8.75×10^−5 M peptide solution in both ears (1 min prior to DNFB challenge). On day 5, after measuring baseline ear thickness with an engineer's micrometer, mice were challenged by applying 10 μl of 0.2% DNFB in acetone:olive oil to each side of each ear. Ears were re-measured 6 h., 24 h., and 48 h. after challenge, and data expressed as the response above baseline (i.e., ear thickness 24 h. after challenge minus ear thickness immediately prior to challenge)±1 standard error of the mean (S.E.). For each mouse, increases in right and left ear thickness were averaged. The experiment was repeated twice. Statistics. Groups were compared for differences in the meaning using a one-tailed Student's t test; p<0.05 was considered statistically significant.

The next assay relates to neutrophil chemotaxis. As to conditions: chemically-synthesized peptide; reference 8; cited from earlier work.
The test system of assay [2] is human umbilical vein endothelial cells (HUVEC). As to conditions: references 8, 9; cited from earlier work.
Assay [3] deals with λ-carrageenan induced neutrophil mediated inflammation of the footpad. As to the kind of experiment: λ-carrageenan-induced footpad inflammation (footpad swelling). Format: in vivo, BALB/c mice. As to conditions: for Footpad Thickness (+/− SE): Un-Methionated Thymosin Experiment (A), oxidised peptide. As to the method: Experimental groups of 8-10 female BALB/c mice, 8-10 weeks of age, were housed in temperature controlled rooms and given food and water ad libitum. Observations and measurements were made by an investigator blinded to the experimental group. λ-Carrageenan injection. After measuring the baseline thickness of the hind footpads with a spring-loaded engineer's micrometer, mice were injected subcutaneously in both hind paws with 340 μg of λ-carrageenan in 40 μl. 6 h., 24 h., and 48 h. after the injection of λ-carrageenan, footpads were re-measured and swelling calculated by subtracting the baseline from the experimental measurements. For each mouse, increases in right and left footpad thickness were averaged. Thymosin peptides were injected as previously described [reference 8]: (i) intraperitoneally with 100 μl of 3.50×10^−5 M peptide solution, 30 minutes before footpad injection; (ii) intradermally into the footpad with 40 μl of 8.75×10^−5 M peptide solution and λ-carrageenan at time 0, and (iii) intraperitoneally with 100 μl of 3.50×10^−5 M peptide solution, 6 h. after footpad injection. For each group, the mean increase in footpad thickness was calculated, and compared to other groups using a one-tailed Student's t-test. The experiment was repeated four times. Statistics. Groups were compared for differences in the meaning using a one-tailed Student's t test; p<0.05 was considered statistically significant.

The test system is the same in assay [4]. To be noted: oxidised form; reference 8; cited from earlier work.

Turning to “N-SDKPDMAEIEKFDKSKLKKTETQEKNPL-PSKETIEQEKQAGES-C (SEQ ID NO:1) [UTβ4]”, the “suppression of ACD ear swelling response relative to PBS” value in assay [1] (6 h) is reported as −4%; in assay [1] (24 h), 5%; in assay [1] (72 h), 2%. Moreover, in assay [1] (6 h, 24 h and 72 h after challenge), the “ear swelling response compared to mice receiving PBS or UTβ4 (FIG. 4A)” value is “no significant suppression”. Further, the results for the “DNFB Ear Thickness (+/− SE)” value in assay [1] (forty-eight hours after challenge), in assay [1] (six hours after challenge) and in assay [1] (twenty-four hours after challenge) were 19.90 ± 1.02 .01 mm, 9.85 ± 0.66 .01 mm and 22.68 ± 1.33 .01 mm, respectively. The ear thickness in assay [1] (seventy-two hours) turned out to be 19.90±1.02; in assay [1] (six hours) it was 9.85±0.66; in assay [1] (twenty-four hours) it was 22.68±1.33. The “neutrophil chemotaxis in vitro” value in the assay on neutrophil chemotaxis was “inhibit neutrophil chemotaxis in vitro”. The “closure of scratch wounds in endothelial cell and keratinocyte monolayers in vitro” value in assay [2] is “promote the closure”. The “suppression of footpad inflammation relative to PBS” value in assay [3] (6 h) stood at 12%; in assay [3] (24 h) it was 30%; in assay [3] (48 h), 31%. This substance also registered a footpad thickness in assay [3] (24 h, unit not given) of 0.37±0.03. Moreover, the Footpad Thickness (+/− SE) in assay [3] (forty-eight hours after λ-carrageenan) is 0.41 ± 0.04 mm; in assay [3] (six hours after λ-carrageenan, increase over baseline) it was 0.53 ± 0.03 mm; in assay [3] (twenty-four hours after λ-carrageenan), 0.37 ± 0.03 mm. Also, the “inhibition of λ-carrageenan-induced edema/inflammation in the mouse footpad” value in assay [4] is on record as “active”.
